Laboratory results published in patent US20230416258A1, “BENZ[…], AND PREPARATION METHOD THEREFOR AND USE THEREOF” (CHINA PHARMACEUTICAL UNIVERSITY, priority 2020, published 2023).

How the values were obtained:
[1] = tested on: GABA-activated Cl− current (GABAA receptor) in HEK 293T cells; experiment: Effect of drugs on GABA-activated current in cells by cell patch clamp; format: cell-based; conditions: for EC50: read-out: Positive enhancement EC50 (μM) for 2 μM GABA-induced current, −60 mV; for Enhancement percentage Emax for 2 μM GABA current (within 3-30 μM): −60 mV, corresponding concentration 20 μM
Procedure: Test compounds were dissolved at various concentrations in an extracellular buffer (140 mM NaCl, 4.7 mM KCl, 10 mM HEPES, 2 mM CaCl2), 10 mM glucose, 1 mM MgCl2, pH 7.4). HEK 293T cells were seeded on glass coverslips and cultured in DMEM media at 37° C. with 5% CO2 for 24 h. GABA Cl^− current was subjected to whole cell recording using an HEKA EPC 10USB patch clamp amplifier. 2 μM GABA was used for exciting Cl^− current, with the membrane potential clamped at −60 mV. The cells were treated with the test compound and 2 μM GABA simultaneously, and the induction effect on and Emax of Cl^− current in the same cell were recorded.
Maximum enhancement percentage Emax for 2 μM GABA current and corresponding concentration (μM): 100% for normal humans. The greater the percentage, the lower the corresponding concentration, and the greater the depth of anesthesia.

SD rats [2] = experiment: Induction of anesthesia in rats by continuous infusion of drug for 20 min; format: in vivo; conditions: initial dose 20 mg/kg bolus, maintenance dose 0.2 (mg/kg)/min for 20 min, after infusion completed
Procedure: SD rats (male, 200-280 g) were randomly grouped and subjected to administration of an initial dose by rapid bolus via the tail vein, followed by a continuous infusion with a maintenance dose for 20 min.
After the infusion was completed, the duration of the righting reflex and the time from wake-up to recovery in rats were recorded.

hCMEC/D3 cells = experiment: Rate of drug passing through in vitro blood-brain barrier (Transwell); format: in vitro ADME; conditions: hCMEC/D3 monolayer, compound 0.1 mg/mL
Procedure: A Transwell device (pore size: 5.0 μm) was placed in a 24-well cell culture well; then hCMEC/D3 cells at 1×10^5 cells/mL were transferred to the upper microwells of Transwell at 150 μL/well, and cell culture medium was added to the lower microwells. After the bottom was covered by a single layer of the cells, the medium in the wells was replaced with EBM-2 complete medium containing 1% FBS, and the cells were cultured in a CO2 incubator for 10 days until a fully dense single layer of the cells was formed. When a fully dense single layer of the cells was formed, the compound at 0.1 mg/mL was added to the lower medium, and after 5 min, the concentration of the compound in the upper medium was measured to calculate the permeability:
Pcompound%=Cupper compound/Clower compound×100%

KM mice = experiment: Test for drug-induced disappearance of righting reflex in mice; format: in vivo; conditions: single rapid bolus via tail vein
Method in brief: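 Latency to, and duration of, righting reflex loss were recorded after one fast tail-vein bolus. Animals: randomized female KM mice weighing 18–25 g.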

[3] = In vitro plasma half-life of drug; format: in vitro ADME, SD rats; conditions: plasma (heparin sodium); SD rat plasma, 37° C.
Procedure: Preparation of plasma: after the SD rats were fasted and kept with water for 12 h, blood was collected through orbital venous plexus. The freshly collected blood was added into a centrifuge tube containing heparin sodium and centrifuged at 5000 rpm for 10 min at 4° C. The supernatant was slowly pipetted and subpackaged. Finally, the collected SD rat plasma was sealed, marked, and stored at −20° C. for later use.
Preparation of target compound sample: the target compound was precisely weighed by an analytical balance and prepared into a stock solution at a concentration of 2 mg/mL (solvent: Vacetone:VTween 80:Vnormal saline=1:1:3) for later use.
Determination of in vitro half-life of target compound sample: 20 μL of test compound stock solution and 80 μL of rat plasma were mixed uniformly. Nine parallel ep tubes were taken, marked as corresponding test tubes of 0 min, 1 min, 2 min, 3 min, 5 min, 10 min, 15 min, 20 min, and 30 min, respectively, and placed in a water bath at 37° C. for incubation for 0 min, 1 min, 2 min, 3 min, 5 min, 10 min, 15 min, 20 min, and 30 min, respectively. 50 μL of mixed solution were taken from the corresponding ep tube at each time point, and […] of acetonitrile was added for precipitating protein. The mixture was vortexed for 10 min using a mixer and centrifuged at 12000 rpm for 15 min. Then, the supernatant was centrifuged at 12000 rpm for 10 min. The optimal detection method for the target compound in the MRM mode was determined using Intellistat software in UPLC-MS/MS, the peak area of the corresponding mass spectrum was integrated, and the plasma half-life of the compound was calculated.

SD rats [4] = experiment: Test for drug-induced disappearance of righting reflex in rats; format: in vivo; conditions: single rapid bolus via tail vein
Source text: In anesthetic drug experiments, latency generally refers to the time from the start of administration to the loss of consciousness of the subject. The shorter latency is preferred, indicating a rapid onset of action after administration. The duration of anesthesia generally refers to the duration of time from the loss of consciousness to the restoration of consciousness of the subject. The duration of the drug will vary from animal model to animal species. Too long anesthesia may produce adverse cardiovascular and respiratory responses, such as adverse neurological effects to the subject, including sleepiness and dizziness; meanwhile, too short duration of anesthesia may affect the anesthesia effect, causing problems such as increase of anesthesia dosage during the operation.
SD rats (male, 200-280 g) were randomly grouped and subjected to a single administration by rapid bolus via the tail vein. The latency and duration of righting reflex in the rats were recorded.

SMILES | EC50 [1] | Enhancement percentage Emax for 2 μM GABA current (within 3-30 μM) [1] | Duration of anesthesia (SD rats [2]) | Time from wake-up to recovery (SD rats [2]) | In vitro blood-brain barrier, compound permeability at 5 min (hCMEC/D3 cells) | Duration (KM mice; 60 mg/kg) | Latency (KM mice; 60 mg/kg) | half-life at 0.4 mg/mL [3] | Latency (SD rats [4]) | Duration (KM mice; 30 mg/kg) | Latency (KM mice; 30 mg/kg)
COC(=O)CC[C@@H]1N=C(c2ccccc2Cl)c2cc(Cl)ccc2-n2c(SCCN)nnc21 [Compound 35, methyl (S)-3-(8-chloro-6-(2-chlorophenyl)-1-((2-aminoethyl)thio)-4H-benzo[f][1,2,4]triazolo[4,3-a][1,4]diazepin-4-yl)propionate] | 0.36 µM | 318% (20 μM) | 51.3 min | 33.8 min | 84.6% | 40.26 min | 0.18 min | 12.6 s | 0.25 min |  | 
COC(=O)CC[C@@H]1N=C(c2ccccc2Cl)c2cc(Br)ccc2-n2c(SCCN)nnc21 [Compound 36, methyl (S)-3-(8-bromo-6-(2-chlorophenyl)-1-((2-aminoethyl)thio)-4H-benzo[f][1,2,4]triazolo[4,3-a][1,4]diazepin-4-yl)propionate] | 0.58 µM | 227% (20 μM) | 9.37 min | 17.5 min | 71.6% | 8.82 min | 0.34 min | 34.2 s | 0.28 min |  | 
COC(=O)CC[C@@H]1N=C(c2ccccc2Cl)c2cc(Br)ccc2-n2c(SC(C)=O)nnc21 [Compound 39, methyl (S)-3-(8-bromo-6-(2-chlorophenyl)-1-(acetylthio)-4H-benzo[f][1,2,4]triazolo[4,3-a][1,4]diazepin-4-yl)propionate] | 0.88 µM | 272% (20 μM) | 7.86 min | 11.2 min | 82.6% | 9.67 min | 0.19 min | 25.8 s | 0.38 min |  | 
COC(=O)CC[C@@H]1N=C(c2ccccc2F)c2cc(Br)ccc2-n2c(SCCN3CCOCC3)nnc21 [Compound 52, methyl (S)-3-(8-bromo-6-(2-fluorophenyl)-1-((2-morpholinoethyl)thio)-4H-benzo[f][1,2,4]triazolo[4,3-a][1,4]diazepin-4-yl)propionate] | 0.47 µM | 293% (20 μM) | 6.25 min | 16.2 min | 80.1% | 7.22 min | 0.94 min | 21.6 s | 0.33 min | 5.38 min | 1.3 min
COC(=O)CC[C@@H]1N=C(c2ccccc2F)c2cc([N+](=O)[O-])ccc2-n2c(SCCN3CCOCC3)nnc21 [Compound 53, methyl (S)-3-(8-nitro-6-(2-fluorophenyl)-1-((2-morpholinoethyl)thio)-4H-benzo[f][1,2,4]triazolo[4,3-a][1,4]diazepin-4-yl)propionate] | 0.53 µM | 285% (20 μM) | 4.17 min | 13.5 min | 69.9% | 9.98 min | 0.42 min | 19.8 s | 0.18 min |  | 
COC(=O)CC[C@@H]1N=C(c2ccccc2F)c2cc([N+](=O)[O-])ccc2-n2c(SCCCN(C)C)nnc21 [Compound 59, methyl (S)-3-(8-nitro-1-((3-(dimethylamino)propyl)thio)-6-(2-fluorophenyl)-4H-benzo[f][1,2,4]triazolo[4,3-a][1,4]diazepin-4-yl)propionate] | 0.79 µM | 252% (20 μM) | 4.89 min | 31.3 min | 75.7% | 9.62 min | 0.37 min | 15 s | 0.22 min |  | 
COC(=O)CC[C@@H]1N=C(c2ccccc2Cl)c2cc(Br)ccc2-n2c(SCCN3CCOCC3)nnc21 [Compound 82, methyl (S)-3-(8-bromo-6-(2-chlorophenyl)-1-((2-morpholinoethyl)thio)-4H-benzo[f][1,2,4]triazolo[4,3-a][1,4]diazepin-4-yl)propionate] | 0.39 µM | 311% (20 μM) | 10.27 min | 20.8 min | 80.1% |  |  | 22.2 s | 0.41 min | 8.37 min | 0.31 min
COC(=O)CC[C@@H]1N=C(c2ccccc2Cl)c2cc([N+](=O)[O-])ccc2-n2c(SCCN3CCOCC3)nnc21 [Compound 83, methyl (S)-3-(8-nitro-6-(2-chlorophenyl)-1-((2-morpholinoethyl)thio)-4H-benzo[f][1,2,4]triazolo[4,3-a][1,4]diazepin-4-yl)propionate] | 0.57 µM | 287% (20 μM) | 28.66 min | 16.3 min | 77.3% | 14.58 min | 0.19 min | 16.8 s | 0.16 min | 7.89 min | 0.28 min
COC(=O)CC[C@@H]1N=C(c2ccccc2Cl)c2cc(Br)ccc2-n2c(SCCCN3CCN(CCO)CC3)nnc21 [Compound 97, methyl (S)-3-(8-bromo-6-(2-chlorophenyl)-1-((3-(4-(2-hydroxyethyl)piperazin-1-yl)propyl)thio)-4H-benzo[f][1,2,4]triazolo[4,3-a][1,4]diazepin-4-yl)propionate] | 0.84 µM | 238% (20 μM) | 6.43 min | 17.4 min | 84.6% | 17.07 min | 0.93 min | 36.6 s | 0.18 min |  | 
